The results in this text go back to PMC10534827 (Pharmaceuticals, 2023).

Assay [1] has as its target T1, Acetylcholinesterase from Electrophorus electricus (Electrophorus electricus, UniProt O42275).
T1 construct: purchased Sigma-Aldrich, Hamburg, Germany
Put plainly: biochemical. The format is biochemical. The following applies: for inhibition at 1000 µM: 1 mM solution of the tested compound, read-out: Activity [%] (inhibition percentage of AChE); for IC50: mean ± SD of three experiments, read-out: AChE IC50.
Method: (§1) AChE and BChE inhibitory activity was measured using the microplate assay described by Ellman et al. [68] with the modifications added by López et al. [36]. The compounds were tested at concentrations between 10^−3 and 10^−8 M. First, all compounds were dissolved in 1% DMSO in a concentration of 1 mg/mL.
(§2) Incubation of the plates was performed at room temperature for 30 min. Then, 100 μL of substrate solution were added to start the enzymatic reaction. […] Enzyme activity was calculated as an inhibition percentage compared to an assay including buffer instead of an inhibitor. […] All data were analyzed with the software package Prism 3 (Graph Pad Inc., San Diego, CA, USA).

In assay [2] the target is T2, butyrylcholinesterase from equine serum (Equus caballus, UniProt P81908).
T2 construct: butyrylcholinesterase from equine serum; purchased Sigma-Aldrich, Hamburg, Germany; host or cells: equine serum
T2 sequence (P81908 whole entry): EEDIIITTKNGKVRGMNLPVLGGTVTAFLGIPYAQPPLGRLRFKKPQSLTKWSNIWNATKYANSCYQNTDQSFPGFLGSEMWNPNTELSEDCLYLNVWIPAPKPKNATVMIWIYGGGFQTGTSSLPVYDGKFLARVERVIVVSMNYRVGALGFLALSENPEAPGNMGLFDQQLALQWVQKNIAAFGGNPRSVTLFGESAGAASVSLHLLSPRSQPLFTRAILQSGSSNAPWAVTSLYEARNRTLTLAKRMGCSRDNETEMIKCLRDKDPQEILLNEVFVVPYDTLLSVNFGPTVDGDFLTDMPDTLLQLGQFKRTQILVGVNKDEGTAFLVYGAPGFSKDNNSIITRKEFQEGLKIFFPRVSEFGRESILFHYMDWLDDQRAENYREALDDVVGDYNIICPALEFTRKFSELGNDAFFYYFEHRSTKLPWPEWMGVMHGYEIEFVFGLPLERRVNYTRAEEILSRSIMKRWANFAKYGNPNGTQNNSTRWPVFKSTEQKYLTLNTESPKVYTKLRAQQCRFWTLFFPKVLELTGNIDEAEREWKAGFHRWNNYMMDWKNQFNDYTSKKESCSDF
The assay can be described thus: biochemical. As to conditions: for inhibition at 1000 µM: read-out: Activity [%] (inhibition percentage of BChE).
Method: as §1, §2

The subject of assay [3] is Neuro-2a cells. The assay can be described thus: MTT cytotoxicity, Neuro-2a. The format is cell-based, murine. As to conditions: read-out: Neuro-2a IC50.
In assay [4] the test system is SH-SY5Y cells. The assay can be described thus: MTT cytotoxicity, SH-SY5Y. The format is cell-based, human. As to conditions: read-out: SH-SY5Y IC50.
Assay [5] concerns CCL-1 cells. The assay can be described thus: MTT cytotoxicity, CCL-1 normal fibroblasts. Format: cell-based, murine. The following applies: read-out: CCL-1 IC50.
A short description of assay [6]: ABTS radical scavenging assay. As to conditions: 734 nm after 5 min.
Method: These compounds were also tested for their antioxidant activities by using the ABTS [2,2′-azinobis (3-ethylbenzothiazoline-6-sulfonic acid)] cation radical decolorization method (Table 4). The BHT [41] was used for comparison. The ABTS cation radical is produced by oxidation of the ABTS molecule with strong oxidizing agents, such as potassium persulfate in water.
For ABTS assay, the procedure followed the method of Arnao et al. [71] with some modifications. […] The working solution was then prepared by mixing the two stock solutions in equal quantities and allowing them to react for 14 h at room temperature in the dark. […] A fresh ABTS solution was prepared for each assay. […] The ABTS scavenging capacity of the compound was calculated as follows:ABTS radical scavenging activity (%) = ((Abscontr. − Abssample)/Abscontr.) ×100, where Abscontr. is the absorbance of DPPH radical with 300 μL MeOH, Abssample is the absorbance of DPPH radical solution mixed with the sample. […] BHT was used as positive control.
Assay [7] in a line: Ferric reducing antioxidant power (FRAP). The following applies: 150 μL of 5 mM compound, 30 min, 593 nm, Trolox equivalent.
The nature of assay [8]: Lipid peroxidation in linoleic acid system, FTC method. As to conditions: 10 mM compound, 500 nm.
Method: The antioxidant activity of studied compounds against lipid peroxidation was measured through ammonium thiocyanate assay as described by Takao et al. [66] with some modifications. […] A 10 μL aliquot of the reaction solution was then added to 200 μL of 70% (v/v) ethanol and 10 μL of 30% (w/v) ammonium thiocyanate. […] Aliquots were assayed every 24 h until the day after the absorbance of the control solution (without compound) reached maximum value. BHT (10 mM) was used as positive control.
The mark [9] stands for this setting: 1 mM solution of the tested compound.
Setting [10] is: mean ± SD of three experiments, read-out: BChE IC50.
[11] abbreviates: Mus musculus, N2a, MTT, 72 h exposure.
The mark [12] stands for this setting: Homo sapiens, SH-SY5Y, MTT, 72 h exposure.
The mark [13] stands for this setting: Mus musculus, Fibroblast, MTT, 72 h exposure.

Where two headings read alike, the source gives them in different places. Bounds are passed on as bounds.

T1 sequence (O42275 24-633): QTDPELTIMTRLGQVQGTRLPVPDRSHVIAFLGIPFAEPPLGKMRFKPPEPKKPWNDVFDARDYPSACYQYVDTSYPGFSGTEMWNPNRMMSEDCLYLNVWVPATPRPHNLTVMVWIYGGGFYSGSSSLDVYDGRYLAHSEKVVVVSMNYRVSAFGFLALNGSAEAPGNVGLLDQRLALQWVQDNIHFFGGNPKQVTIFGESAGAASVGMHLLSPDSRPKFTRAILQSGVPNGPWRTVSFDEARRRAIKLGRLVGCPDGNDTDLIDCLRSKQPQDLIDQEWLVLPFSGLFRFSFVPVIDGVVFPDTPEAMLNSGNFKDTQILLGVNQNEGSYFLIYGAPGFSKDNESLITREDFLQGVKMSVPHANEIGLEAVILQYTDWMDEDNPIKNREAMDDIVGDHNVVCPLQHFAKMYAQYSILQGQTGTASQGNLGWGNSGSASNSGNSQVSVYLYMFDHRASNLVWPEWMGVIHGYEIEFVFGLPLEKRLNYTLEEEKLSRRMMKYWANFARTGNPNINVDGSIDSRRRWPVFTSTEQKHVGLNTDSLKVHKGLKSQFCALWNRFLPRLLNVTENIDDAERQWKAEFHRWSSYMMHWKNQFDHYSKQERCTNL

The term inhibition denotes how much of the control response was suppressed. Usually IC50 stands for the concentration needed to halve the response being measured. Turning to `O=C(N/N=C/c1ccc(O)cc1)C1CCN(Cc2ccccc2)C1` (centres unmarked) [3e, 1-benzyl-N’-[(E)-(4-hydroxyphenyl)methylidene]pyrrolidine-3-carbohydrazide], the “AChE inhibitory activity in words” value in assay [1] was “practically inactive”. In addition, the inhibition at 1000 µM was 3.84% in assay [1] and 12.4% in assay [2] (setting [9]). The IC50 is more than 1000 µM in assay [1]; more than 1000 µM in assay [2] (setting [10]); more than 300 µM in assay [3] (setting [11]); 170 ± 10.6 µM in assay [4] (setting [12]); more than 300 µM in assay [5] (setting [13]).
Turning to `O=C(N/N=C/c1ccc(O)cc1O)C1CCN(Cc2ccccc2)C1` (centres unmarked) [3f, 1-benzyl-N’-[(E)-(2,4-dihydroxyphenyl)methylidene]pyrrolidine-3-carbohydrazide], the inhibition at 1000 µM in assay [1] came to 64.1%; in assay [2] (setting [9]) it was 57.2%. In assay [1] (IC50(BChE)/IC50(AChE)), the “SI AChE” value was determined as 1.28. Also, the IC50 in assay [1] worked out at 550 ± 37.1 µM; in assay [2] (setting [10]), 709 ± 41.3 µM; in assay [3] (setting [11]) it was 12.5 ± 2.4 µM; in assay [4] (setting [12]), 35.8 ± 5.5 µM; in assay [5] (setting [13]) it was 150 ± 11.2 µM.
For `O=C(N/N=C/c1ccc(O)c(O)c1)C1CCN(Cc2ccccc2)C1` (centres unmarked) [3g, 1-benzyl-N’-[(E)-(3,4-dihydroxyphenyl)methylidene]pyrrolidine-3-carbohydrazide], the “AChE inhibitory activity in words” value in assay [1] is “practically inactive”. Besides, the inhibition at 1000 µM in assay [1] came to 2.74%; in assay [2] (setting [9]) it was 28.2%. In addition, the IC50 in assay [1] is more than 1000 µM; in assay [2] (setting [10]) it was more than 1000 µM; in assay [3] (setting [11]) it was 110 ± 9.1 µM; in assay [4] (setting [12]), more than 300 µM; in assay [5] (setting [13]) it was more than 300 µM.
With `O=C(N/N=C/c1c(O)cc(O)cc1O)C1CCN(Cc2ccccc2)C1` (centres unmarked) [3h, 1-benzyl-N’-[(E)-(2,4,6-trihydroxyphenyl)methylidene]pyrrolidine-3-carbohydrazide], the inhibition at 1000 µM is 73.3% in assay [1] and 76.5% in assay [2] (setting [9]). Moreover, the IC50 was 351 ± 17.9 µM in assay [1]; 179 ± 11.5 µM in assay [2] (setting [10]); more than 300 µM in assay [3] (setting [11]); more than 300 µM in assay [4] (setting [12]); more than 300 µM in assay [5] (setting [13]). For the same compound, the “SI BChE” value in assay [2] (IC50(AChE)/IC50(BChE)) is on record as 1.96.
As to `COc1ccc2[nH]cc(/C=N/NC(=O)CNC(=O)OC(C)(C)C)c2c1` [3j], the IC50 was more than 1000 µM in assay [1]; more than 1000 µM in assay [2] (setting [10]); more than 300 µM in assay [3] (setting [11]); 150 ± 12.3 µM in assay [4] (setting [12]); more than 300 µM in assay [5] (setting [13]). In addition, the inhibition at 1000 µM in assay [2] (setting [9]) was 17.4%.
Take `COc1ccc2c(c1)c(/C=N/NC(=O)CNC(=O)OC(C)(C)C)cn2C` [3k]: the inhibition at 1000 µM in assay [1] was found to be 3.26%; in assay [2] (setting [9]) it was 30.3%. Moreover, the IC50 in assay [1] is more than 1000 µM; in assay [2] (setting [10]) it was more than 1000 µM; in assay [3] (setting [11]), more than 300 µM; in assay [4] (setting [12]), 131 ± 11.8 µM; in assay [5] (setting [13]), more than 300 µM.
Regarding `Cn1cc(/C=N/NC(=O)CNC(=O)OC(C)(C)C)c2ccccc21` [3l, tert-butyl(2-{(2E)-2-[(1-methyl-1H-indol-3-yl)methylidene]hydrazinyl}-2-oxoethyl)carbamate], the IC50 in assay [1] is more than 1000 µM; in assay [2] (setting [10]), more than 1000 µM; in assay [3] (setting [11]), more than 300 µM; in assay [4] (setting [12]) it was 107 ± 8.9 µM; in assay [5] (setting [13]) it was more than 300 µM. The inhibition at 1000 µM in assay [2] (setting [9]) is 39.1%.
As to `COc1ccc(/C=N/NC(=O)c2c[nH]c3ccccc23)cc1OC` [3o, N’-[(E)-(3,4-dimethoxyphenyl)methylidene]-1H-indole-3-carbohydrazide], the IC50 is more than 1000 µM in assay [1]; more than 1000 µM in assay [2] (setting [10]); 126 ± 10.7 µM in assay [3] (setting [11]); 70 ± 7.2 µM in assay [4] (setting [12]); more than 300 µM in assay [5] (setting [13]).
With `COc1ccc(/C=N/NC(=O)Cc2c[nH]c3ccccc23)cc1OC` [3p, N’-[(E)-(3,4-dimethoxyphenyl)methylidene]-2-(1H-indol-3-yl)acetohydrazide], the IC50 was more than 1000 µM in assay [1]; more than 1000 µM in assay [2] (setting [10]); 116 ± 12.8 µM in assay [3] (setting [11]); 87.4 ± 7.7 µM in assay [4] (setting [12]); more than 300 µM in assay [5] (setting [13]). In addition, the inhibition at 1000 µM in assay [2] (setting [9]) was determined as 24%.
Regarding `COc1cc(/C=N/NC(=O)c2ccc(O)cc2O)ccc1O` [3r, 2,4-dihydroxy-N’-[(E)-(4-hydroxy-3-methoxyphenyl)methylidene]benzohydrazide], the IC50 in assay [1] was more than 1000 µM. The inhibition at 1000 µM in assay [2] (setting [9]) stood at 16.9%. Also, the IC50 in assay [2] (setting [10]) was more than 1000 µM. For the same compound, the IC50 in assay [3] (setting [11]) is more than 300 µM. In assay [4] (setting [12]), the IC50 worked out at 156 ± 11.1 µM. Also, in assay [5] (setting [13]), the IC50 is more than 300 µM. Besides, in assay [6], the “ABTS Activity” value is reported as 91.41 ± 0.47% and the IC50 amounted to 2500 ± 230 µM. In addition, in assay [7], the FRAP is recorded as 14.30 ± 0.56 μMTE. For the same compound, in assay [8], the “Absorbance Day 1” value is 0.80 ± 0.04, the “Absorbance Day 2” value was determined as 0.81 ± 0.01, the “Absorbance Day 3” value is reported as 0.82 ± 0.02 and the “Absorbance Day 4” value came to 0.87 ± 0.09. For the same compound, the “Absorbance Day 5” value in assay [8] is reported as 0.86 ± 0.09.
With `COc1ccc(S(=O)(=O)N/N=C/c2cn(C)c3ccc(OC)cc23)cc1` [5b, 4-methoxy-N’-[(E)-(5-methoxy-1-methyl-1H-indol-3-yl)methylidene]benzenesulfonohydrazide], the IC50 in assay [1] is more than 1000 µM; in assay [2] (setting [10]) it was more than 1000 µM; in assay [3] (setting [11]) it was 30.5 ± 3.2 µM; in assay [4] (setting [12]), 70.4 ± 4.9 µM; in assay [5] (setting [13]), 38.1 ± 3.5 µM.
For `COc1ccc(S(=O)(=O)N/N=C/c2c[nH]c3ccc(OC)cc23)cc1` [5c, 4-methoxy-N’-[(E)-(5-methoxy-1H-indol-3-yl)methylidene]benzenesulfonohydrazide], the IC50 in assay [1] was more than 1000 µM; in assay [2] (setting [10]), more than 1000 µM; in assay [3] (setting [11]) it was 7.5 ± 2.4 µM; in assay [4] (setting [12]), 48.3 ± 5.2 µM; in assay [5] (setting [13]), 25.7 ± 2.9 µM. In addition, the inhibition at 1000 µM in assay [2] (setting [9]) was 18.2%.
As for `O=S(=O)(N/N=C/c1cn(Cc2ccccc2)c2ccccc12)c1ccccc1` [5d, N’-[(E)-(1-benzyl-1H-indol-3-yl)methylidene]benzenesulfonohydrazide], the inhibition at 1000 µM in assay [1] came out at 41.7%. The IC50 was more than 1000 µM in assay [1]; more than 1000 µM in assay [2] (setting [10]); 117 ± 11.5 µM in assay [3] (setting [11]); 99.5 ± 7.8 µM in assay [4] (setting [12]); 140 ± 8.4 µM in assay [5] (setting [13]).
For the compound `COc1ccc(S(=O)(=O)N/N=C/c2cn(C)c3ccccc23)cc1` [5e, 4-methoxy-N’-[(E)-(1-methyl-1H-indol-3-yl)methylidene]benzenesulfonohydrazide], the IC50 was more than 1000 µM in assay [1]; more than 1000 µM in assay [2] (setting [10]); 19.9 ± 1.7 µM in assay [3] (setting [11]); 83.3 ± 4.9 µM in assay [4] (setting [12]); 180 ± 9.6 µM in assay [5] (setting [13]).
Regarding `O=S(=O)(N/N=C/c1ccc(Cl)cc1)c1ccccc1` [5l, N’-[(E)-(4-chlorophenyl)methylidene]benzenesulfonohydrazide], the IC50 in assay [1] is more than 1000 µM; in assay [2] (setting [10]), more than 1000 µM; in assay [3] (setting [11]) it was 117 ± 11.5 µM; in assay [4] (setting [12]), 99.5 ± 7.8 µM; in assay [5] (setting [13]) it was 131 ± 11.4 µM.
On to `COc1cc2c(cc1OC)C(=O)C(CC1CCN(Cc3ccccc3)CC1)C2` (centres unmarked) [Donepezil, 1-Benzyl-4-[(5,6-dimethoxy-1-indanon-2-yl)methyl]piperidine, reference compound], for which, in assay [2], the inhibition at 1000 µM is 69.1%.
As to `COc1ccc2c3c1O[C@H]1C[C@@H](O)C=C[C@@]31CCN(C)C2` [Galanthamine, reference compound], the inhibition at 1000 µM in assay [2] is 85.8%. Moreover, the IC50 in assay [3] (Mus musculus, N2a, 72 h) was more than 300 µM; in assay [4] (Homo sapiens, SH-SY5Y, 72 h) it was more than 300 µM; in assay [5] (Mus musculus, Fibroblast, 72 h) it was more than 300 µM.
With `COc1ccc2[nH]cc(CCNC(C)=O)c2c1` [Melatonin, reference compound], in assay [1], the inhibition at 1000 µM was 1.24% and the IC50 was more than 1000 µM. In addition, in assay [2], the IC50 is more than 1000 µM and the inhibition at 1000 µM came out at 4.21 ± 0.88%. In addition, in assay [8], the “Absorbance Day 1” value was 0.75 ± 0.07, the “Absorbance Day 2” value worked out at 0.80 ± 0.09, the “Absorbance Day 3” value stood at 0.89 ± 0.05 and the “Absorbance Day 4” value turned out to be 0.89 ± 0.02. Further, in assay [8], the “Absorbance Day 5” value amounted to 0.94 ± 0.01.
Consider “N’-[(E)-(5-methoxy-1-methyl-1H-indol-3-yl)methylidene]benzenesulfonohydrazide [5f]”, for which the IC50 in assay [1] was more than 1000 µM; in assay [2] (setting [10]) it was more than 1000 µM; in assay [3] (MTT, 72 h exposure), 135 ± 10.9 µM; in assay [4] (MTT, 72 h exposure) it was 132 ± 10.3 µM; in assay [5] (MTT, 72 h exposure), 167 ± 11.8 µM.
